# According to US20260184707A1, “PHARMACEUTICAL COMPOUNDS FOR THE TREATMENT OF COMPLEMENT MEDIATED DISORDERS” (ALEXION PHARMACEUTICALS, INC., priority 2022, published 2026):
# Target: T1, Human complement C1s enzyme (Homo sapiens, UniProt P09871)
# T1 construct: purified from human serum, Complement Technology, Inc; purchased Complement Technology, Inc; host or cells: human serum (plasma-derived native protein)
# T1 sequence (P09871 438-688 limits assumed): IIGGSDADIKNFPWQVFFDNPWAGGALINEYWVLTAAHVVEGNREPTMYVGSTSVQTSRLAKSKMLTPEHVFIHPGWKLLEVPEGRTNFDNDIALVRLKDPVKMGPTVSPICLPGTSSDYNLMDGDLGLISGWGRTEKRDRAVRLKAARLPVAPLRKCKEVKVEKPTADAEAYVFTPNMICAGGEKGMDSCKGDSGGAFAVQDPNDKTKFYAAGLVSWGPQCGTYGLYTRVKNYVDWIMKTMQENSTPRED
# T1 sequence (P09871 16-437 partner limits assumed): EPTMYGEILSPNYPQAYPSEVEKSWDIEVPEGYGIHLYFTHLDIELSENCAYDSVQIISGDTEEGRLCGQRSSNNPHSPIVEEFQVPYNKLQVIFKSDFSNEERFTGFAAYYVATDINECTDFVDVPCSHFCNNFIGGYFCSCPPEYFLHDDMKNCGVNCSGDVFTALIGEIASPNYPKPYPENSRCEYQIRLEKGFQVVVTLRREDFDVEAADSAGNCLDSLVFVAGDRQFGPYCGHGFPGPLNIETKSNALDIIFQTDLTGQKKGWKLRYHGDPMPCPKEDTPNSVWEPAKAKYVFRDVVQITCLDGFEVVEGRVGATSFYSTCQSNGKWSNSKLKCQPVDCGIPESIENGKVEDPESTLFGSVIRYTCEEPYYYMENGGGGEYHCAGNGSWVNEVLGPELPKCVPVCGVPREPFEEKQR
# Assay: Human C1s enzyme assay
# Type: biochemical
# Details: human complement C1s enzyme 1.16 nM, substrate Z-L-Lys-SBzl, A405; read-out: IC50 (Stars)
# In short: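 Serum-purified human C1s (1.16 nM final) preincubated 5 min at room temperature with compound in 50 mM Tris, 1 M NaCl, pH 7.5. Z-L-Lys-SBzl and DTNB added at 100 μM each; A405 recorded every 30 s. IC50 from nonlinear regression of reaction rates versus compound concentration.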
row,SMILES,IC50 [nM]
1,"Cc1cccc(-c2ncc(NCCCc3ccccc3)c(=O)n2CC(=O)NCc2cc3cnccc3[nH]2)c1F [Compound 435, N-((1H-pyrrolo[3,2-c]pyridin-2-yl)methyl)-2-(2-(2-fluoro-3-methylphenyl)-6-oxo-5-((3-phenylpropyl)amino)pyrimi-din-1(6H)-yl)acetamide]",< 100
2,"O=C(Cn1c(-c2ccccc2)ncc(NCc2ccc(-c3ccccc3)cc2)c1=O)NCc1cc2cnccc2[nH]1 [Compound 19, N-((1H-pyrrolo[3,2-c]pyridin-2-yl)methyl)-2-(5-(([1,1′-biphenyl]-4-ylmethyl)amino)-6-oxo-2-phenylpyrimidin-1(6H)-yl)acetamide]",< 100
3,"O=C(Cn1c(-c2ccccc2)ncc(NC(=O)c2ccc(-c3ccccc3)s2)c1=O)NCc1ccc(Cl)s1 [Compound 278, N-(1-(2-(((5-chlorothiophen-2-yl)methyl)amino)-2-oxoethyl)-6-oxo-2-phenyl-1,6-dihydro-pyrimidin-5-yl)-5-phenylthio-phene-2-carboxamide]",> 1000
4,"O=C(Cn1c(N2CCOCC2)ncc(NC(=O)c2coc(-c3ccccc3)n2)c1=O)NCc1cc2cnccc2[nH]1 [Compound 413, N-(1-(2-(((1H-pyrrolo[3,2-c]pyridin-2-yl)methyl)amino)-2-oxoethyl)-2-morpholino-6-oxo-1,6-dihydropyrimidin-5-yl)-2-phenyloxazole-4-carbox-amide]",< 100
5,"Cn1cc(-c2ncc(NCc3ccc4oc5ccccc5c4c3)c(=O)n2CC(=O)NCc2cc3cnccc3[nH]2)cn1 [Compound 287, N-((1H-pyrrolo[3,2-c]pyridin-2-yl)methyl)-2-(5-((dibenzo [b,d]furan-2-ylmethyl)amino)-2-(1-methyl-1H-pyrazol-4-yl)-6-oxopyrimidin-1(6H)-yl)-acetamide]",< 100
6,"O=C(Cn1c(-c2ccccc2)ncc(NC(=O)c2coc(-c3cccnc3)n2)c1=O)NCc1cc2cnccc2[nH]1 [Compound 231, N-(1-(2-(((1H-pyrrolo[3,2-c]pyridine-2-yl)methyl)amino)-2-oxoethyl)-6-oxo-2-phenyl-1,6-dihydropyrimidin-5-yl)-2-(pyridine-3-yl)oxazole-4-carboxamide]",< 100
7,"CS(=O)(=NC#N)c1ccc(CCCNc2cnc(-c3ccccc3)n(CC(=O)NCc3cc4cnccc4[nH]3)c2=O)cc1 (centres unmarked) [Compound 84, N-((1H-pyrrolo[3,2-c]pyridine-2-yl)methyl)-2-(5-((3-(4-(N-cyano-S-methylsulfonimidoyl)phenyl)propyl)amino)-6-oxo-2-phenylpyrimidin-1(6H)-yl)acetamide]",< 100
8,"O=C(Cn1c(-c2ccccc2)cnc(NCCCc2ccccc2)c1=O)NCc1cc2cnccc2[nH]1 [Compound 17, N-((1H-pyrrolo[3,2-c]pyridin-2-yl)methyl)-2-(2-oxo-6-phen-yl-3-((3-phenylpropyl)amino)-pyrazin-1(2H)-yl)acetamide]",< 100
9,"O=C(Cn1c(-c2ccccc2)ncc(NCc2ccc3oc4ccccc4c3c2)c1=O)NCc1cc2c(s1)CNCC2 [Compound 143, 2-(5-((dibenzo[b,d]furan-2-yl-methyl)amino)-6-oxo-2-phen-ylpyrimidin-1(6H)-yl)-N-((4,5,6,7-tetrahydrothieno [2,3-c]pyridin-2-yl)methyl)-acetamide]",< 100
10,"CC(C)c1cnc(N[C@H](C)c2ccc3oc4ccccc4c3c2)c(=O)n1CC(=O)NCc1cc2cnccc2[nH]1 [Compound 442, (R)-N-((1H-pyrrolo[3,2-c]pyridin-2-yl)methyl)-2-(3-((1-(dibenzo[b,d]furan-2-yl)ethyl)-amino)-6-isopropyl-2-oxopyr-azin-1(2H)-yl)acetamide]",< 100
11,"O=C(Cn1c(-c2ccccc2F)ncc(N[C@H](CO)c2ccc3oc4ccccc4c3c2)c1=O)NCc1cc2cnccc2[nH]1 [Compound 433, (S)—N-((1H-Pyrrolo[3,2-c]pyridine-2-yl)methyl)-2-(5-((1-(dibenzo[b,d]furan-2-yl)-2-hydroxyethyl)amino)-2-(2-fluorophenyl)-6-oxopyrimidin-1(6H)-yl)acetamide]",< 100
12,"Cc1ncc(N[C@H](C)c2ccc3oc4ccccc4c3c2)c(=O)n1C(C)C(=O)NCc1cc2cnccc2[nH]1 (stereo partly drawn) [Compound 404, N-((1H-pyrrolo[3,2-c]pyridin-2-yl)methyl)-2-(5-(((R)-1-(dibenzo[b,d]furan-2-yl)ethyl)-amino)-2-methyl-6-oxopyrimi-din-1(6H)-yl)propanamide]",> 1000
13,"C[C@@H](Nc1cnc(N2CCOCC2)n(CC(=O)NCc2cc3cnccc3[nH]2)c1=O)c1coc(-c2ccccc2)n1 [Compound 461, (R)—N-((1H-Pyrrolo[3,2-c]pyridine-2-yl)methyl)-2-(2-morpholino-6-oxo-5-((1-(2-phenyloxazol-4-yl)ethyl)amino)pyrimidin-1(6H)-yl)acetamide]",< 100
14,"C[C@@H](Nc1cnc(N2CCCCC2)n(CC(=O)NCc2cc3cnccc3[nH]2)c1=O)c1ccc(Oc2ccccc2)cc1 [Compound 448, (R)-N-((1H-pyrrolo[3,2-c]pyridin-2-yl)methyl)-2-(6-oxo-5-((1-(4-phenoxyphenyl)-ethyl)amino)-2-(piperidin-1-yl)pyrimidin-1(6H)-yl)acet-amide]",100 to 1000
15,"C[C@@H](Nc1cnc(-c2ccc(=O)n(C)c2)n(CC(=O)NCc2cc3cnccc3[nH]2)c1=O)c1ccc2oc3ccccc3c2c1 [Compound 290, (R)-N-((1H-pyrrolo[3,2-c]pyr-idin-2-yl)methyl)-2-(5-((1-(dibenzo[b,d]furan-2-yl)ethyl)-amino)-2-(1-methyl-6-oxo-1,6-dihydropyridin-3-yl)-6-oxopyr-imidin-1(6H)-yl)acetamide]",100 to 1000
16,"C[C@@H](Nc1ncc(-c2ccccc2F)n(CC(=O)NCc2cc3cnccc3[nH]2)c1=O)c1ccc2oc3ccccc3c2c1 [Compound 322, (R)-N-((1H-pyrrolo[3,2-c]pyridin-2-yl)methyl)-2-(3-((1-(dibenzo[b,d]furan-2-yl)ethyl)-amino)-6-(2-fluorophenyl)-2-oxopyrazin-1(2H)-yl)acetamide]",< 100
17,O=C(Cn1c(-c2ccccc2)ncc(Nc2ccc3c(c2)oc2ccccc23)c1=O)NCc1cc2cnccc2[nH]1 [Compound 245],< 100
18,"C[C@@H](Nc1cnc(-c2ccncc2)n(CC(=O)NCc2cc3cnccc3[nH]2)c1=O)c1ccc2oc3ccccc3c2c1 [Compound 334, (R)-N-((1H-pyrrolo[3,2-c]pyridin-2-yl)methyl)-2-(5-((1-(dibenzo[b,d]furan-2-yl)ethyl)-amino)-6-oxo-2-(pyridin-4-yl)-pyrimidin-1(6H)-yl)acetamide]",< 100
19,"C[C@H](Nc1nccn(CC(=O)NCc2cc3cnccc3[nH]2)c1=O)c1ccc2oc3ccccc3c2c1 [Compound 299, (S)—N-((1H-pyrrolo[3,2-c]pyridine-2-yl)methyl)-2-(3-((1-(dibenzo[b,d]furan-2-yl)ethyl)amino)-2-oxopyrazin-1(2H)-yl)acetamide]",< 100
20,"C[C@@H](Nc1cnc(-c2ccccc2)n(CC(=O)N[C@H](C)c2cc3cnccc3[nH]2)c1=O)c1ccc2oc3ccccc3c2c1 [Compound 294, N-((R)-1-(1H-pyrrolo[3,2-c]pyridin-2-yl)ethyl)-2-(5-(((R)-1-(dibenzo[b,d]furan-2-l)ethyl)-amino)-6-oxo-2-phenylpyrimi-din-1(6H)-yl)acetamide]",100 to 1000
